Legend:
[1] = system: immortalized human corneal endothelial cells from a Fuchs' endothelial corneal dystrophy patient (iFECD); experiment: Suppression of TGF-β-induced corneal endothelial cell disorder, observed under a phase contrast microscope; type: cell-based; conditions: for effect of suppressing corneal endothelial cell disorder: Example 1, iFECD, 24 h pretreatment then 10 ng/ml TGF-β 24 h; for effect of suppressing corneal endothelial cell disorders: Example 2, iFECD + TGF-β
Protocol: The medium was removed from a culture dish culturing immortalized human corneal endothelial cells from a Fuchs' endothelial corneal dystrophy patient (iFECD), and 1×PBS(-) preheated to 37° C. was added and washed. This was repeated twice. 1×PBS(-) was added again and the medium was incubated for 5 minutes at 37° C. (5% CO2). After removing the PBS(-), 0.05% Trypsin-EDTA (Nacalai Tesque, 32778-34) was added and incubated for 5 minutes at 37° C. (5% CO2). The medium was then suspended and centrifuged for 3 minutes at 1500 rpm to retrieve cells. DMEM (Nacalai Tesque, 08456-36)+10% FBS (Biowest, S1820-500)+1% P/S (Nacalai Tesque, 26252-94) was used as the medium. The immortalized human corneal endothelial cells from a Fuchs' endothelial corneal dystrophy patient (iFECD) were seeded on a 12-well plate at a ratio of 8.0×10^4 cells per well and cultured for 24 hours at 37° C. (5% CO2). DMEM+10% FBS+1% P/S was used as the medium. After 24 hours, the medium was exchanged and cultured again for 24 hours. DMEM+2% FBS+1% P/S was used as the medium. After 24 hours, the medium was removed. 10 ng/ml of Transforming Growth Factor-132 Human recombinant (WAKO, 200-19911) was added, and the medium was cultured for 24 hours. DMEM+2% FBS+1% P/S was used as the medium. After 24 hours, the cell morphology and apoptosis were observed under a phase contrast microscope. After […] were seeded on a 12-well plate and cultured for 24 hours, the medium was removed. SB431542 (WAKO, 192-16541) and EW-7197 (Selleck Chemicals, 57530) were added so that the final concentration would each be 0.1, 0.3, 1, 3, or 10 μM, and the medium was cultured for 24 hours. DMEM+2% FBS+1% P/S was used as the medium. After 24 hours, the medium was removed. 10 ng/ml of Transforming Growth Factor-132 Human recombinant (WAKO, 200-19911) as well as SB431542 and EW-7197 were added so that the final concentration would each be 0.1, 0.3, 1, 3, or 10 μM, and the medium was cultured for 24 hours. DMEM+2% FBS+1% P/S was used as the medium. After 24 hours, the cell morphology and apoptosis were observed under a phase contrast microscope. After […] were seeded on a 12-well plate at a ratio of 7.0×10^4 cells and cultured for 24 hours, the medium was removed. EW-7197 (Selleck Chemicals, 57530) was added so that the final concentration would be 0.001, 0.003, 0.01, 0.03, 0.1, 0.3, 1, 3, 10, or 30 μM, and the medium was cultured for 24 hours. DMEM+2% FBS+1% P/S was used as the medium. After 24 hours, the medium was removed. 10 ng/ml of Transforming Growth Factor-132 Human recombinant (WAKO, 200-19911) and EW-7197 were added so that the final concentration would be 0.001, 0.003, 0.01, 0.03, 0.1, 0.3, 1, 3, 10, or 30 μM, and the medium was cultured for 24 hours. DMEM+2% FBS+1% P/S was used as the medium. After 24 hours, the cell morphology and apoptosis were observed under a phase contrast microscope.

fibronectin = experiment: Area of fibronectin expression by immunostaining, Col8a2 knock-in mice (Example 6); type: in vivo
Protocol: 5 μL of 0.02% (about 0.5 mM) EW-7197 eye drop, 0.1% (about 2.5 mM) EW-7197 eye drop, or a base agent (DMSO containing phosphate buffer) was administered as an eye drop to both eyes of 4-month-old alpha 2 collagen 8 gene (Col8a2) knock-in mice 4 times a day for 12 weeks. A surfactant was added to the base agent as needed. Those skilled in the art can use an appropriate and suitable surfactant (Kenji Motose (1984). “Tenganzai” [Eye drops] Nanzando; International Pharmaceutical Excipients Council Japan (2016). “Iyakuhin Tenkabutsu Jiten” [Pharmaceutical Excipient Encyclopedia] Yakuji Nippo, Limited). The corneal endothelial cell density was measured using a specular microscope KS3M (Konan Medical, Inc.) at before eye drops, and 3, 6, 9, and 12 weeks after eye drops. Mice were euthanized by intraperitoneally administering an excessive amount (200 mg/kg body weight or greater) of anesthetic injection Somnopentyl (Kyoritsu Seiyaku Corporation) 12 weeks after injection. After confirming cardiac arrest, both eye balls were harvested. The harvested eye balls were incised to prepare a corneal fragment. Immunostaining of fibronectin was performed. The immunostaining method was the following. Image-Pro (Nippon Roper K.K.) was used to analyze the area of fibronectin expression.
After immobilizing a mouse corneal fragment for 10 minutes at room temperature in 4% paraformaldehyde, 0.5% TritonX-100 was added and allowed to permeate for 5 minutes. 1% bovine serum albumin (BSA) was added and the fragment was incubated for 1 hour at room temperature. The corneal fragment was then immersed in a primary antibody solution and reacted overnight at 4° C. 1:250 diluent of fibronectin polyclonal antibody (abcam) was used as the primary antibody. Next, the corneal fragment was immersed in a mixture of a secondary antibody solution and DAPI solution (Dojindo Laboratories) and reacted for 1 hour at room temperature away from light. 1:2000 diluent of Alexa Fluor® 488-labeled goat anti-rabbit IgG (Life Technologies) was used as the secondary antibody. 1:1000 diluent of DAPI solution was used. […]

Cc1cccc(-c2[nH]c(CNc3ccccc3F)nc2-c2ccc3ncnn3c2)n1 [EW-7197, N-((4-([1,2,4]triazolo[1,5-a]pyridin-6-yl)-5-(6-methylpyridin-2-yl)-1H-imidazol-2-yl)methyl)-2-fluoroaniline]
effect of suppressing corneal endothelial cell disorder ([1]; compound at 3 μM and 10 μM): confirmed
effect of suppressing corneal endothelial cell disorder ([1]; compound at 0.1, 0.3, and 1 μM): effectively suppressed
effect of suppressing corneal endothelial cell disorders ([1]; compound at 3 μM and 10 μM): effectively suppressed
effect of suppressing corneal endothelial cell disorders ([1]; compound at 0.03, 0.1, 0.3, and 1 μM): particularly excellent effect of suppressing corneal endothelial cell disorders
effect of suppressing corneal endothelial disorders ([1]; summary statement, at a low concentration of 0.03 μM): very potent effect of suppressing corneal endothelial disorders
fibronectin expression (fibronectin; 0.004% (0.1 mM) eye drop): tendency of suppressing fibronectin expression
fibronectin expression (fibronectin; 0.02% eye drop, 12 weeks): clear suppression of fibronectin expression
fibronectin expression (fibronectin; 0.1% eye drop, 12 weeks): clear suppression of fibronectin expression
